Reference: US10294212B2 (CURADEV PHARMA PRIVATE LTD., priority 2013, dated 2019)
Counter-ions that a name gives are not always drawn.

Assays:
[1] = target: Human indoleamine 2,3-dioxygenase1 (hIDO1) (Homo sapiens (Human), UniProt P14902); test: In-vitro IDO1 enzyme assay (conversion of L-tryptophan to KYN); format: biochemical; settings: read-out: IC50 (IDO1) Enz
Outline: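 Kynurenine formation quantified by HPLC absorbance at 360 nm or LC/MS/MS after TCA quench and 15 min at 65 °C. Reaction: 10 nM N-His hIDO1, 30 μM tryptophan, ascorbate/methylene blue/catalase, pH 6.5 phosphate buffer, 37 °C for 30 min. Inhibition relative to 1% DMSO vehicle, fitted to IC50.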

IDO1 in HeLa cells = IDO1 in HeLa cells (Homo sapiens (Human), UniProt P14902); test: HeLa cell based IDO1 assay (IFNγ-induced, KYN in supernatant)
Outline: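 Kynurenine in the supernatant, quantified by C-18 HPLC with 360 nm absorbance after TCA hydrolysis (65 °C, 15 min), was the read-out. Compounds (typically 10 μM to 1 nM) were added in HBSS containing 80 μM tryptophan to HeLa cells pre-induced overnight with 50 ng/mL IFNγ. IC50 came from nonlinear fits of % inhibition versus 1% DMSO vehicle.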

[2] = target: Human TDO (hTDO)-transfected CHO-K1 cells (Homo sapiens (Human), UniProt P48775); test: CHO-K1 cell based TDO assay; settings: hTDO cellular assay
Outline: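 Kynurenine output was read by LC/MS/MS after TCA precipitation and 15 min at 65° C. Before that, CHO-K1 cells stably carrying human TDO2 were incubated 2 h with compounds (typically 31 μM to 10 nM) and 80 μM L-tryptophan in HBSS. Decrease versus DMSO vehicle gave percent inhibition, then IC50.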

Human TDO (hTDO)-transfected CHO-K1 cells, sequence (P48775 whole entry): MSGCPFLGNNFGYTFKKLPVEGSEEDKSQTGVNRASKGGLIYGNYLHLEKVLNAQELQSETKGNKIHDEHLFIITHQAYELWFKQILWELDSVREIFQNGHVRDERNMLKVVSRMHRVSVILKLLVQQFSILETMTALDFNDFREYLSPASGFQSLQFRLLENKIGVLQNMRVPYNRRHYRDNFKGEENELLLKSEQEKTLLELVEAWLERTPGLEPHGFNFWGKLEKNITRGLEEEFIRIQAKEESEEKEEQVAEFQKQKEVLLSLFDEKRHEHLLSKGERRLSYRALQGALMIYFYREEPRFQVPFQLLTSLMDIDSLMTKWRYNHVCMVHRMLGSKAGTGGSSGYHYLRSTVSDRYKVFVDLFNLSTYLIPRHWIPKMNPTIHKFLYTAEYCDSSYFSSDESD
Human indoleamine 2,3-dioxygenase1 (hIDO1), sequence (P14902 whole entry): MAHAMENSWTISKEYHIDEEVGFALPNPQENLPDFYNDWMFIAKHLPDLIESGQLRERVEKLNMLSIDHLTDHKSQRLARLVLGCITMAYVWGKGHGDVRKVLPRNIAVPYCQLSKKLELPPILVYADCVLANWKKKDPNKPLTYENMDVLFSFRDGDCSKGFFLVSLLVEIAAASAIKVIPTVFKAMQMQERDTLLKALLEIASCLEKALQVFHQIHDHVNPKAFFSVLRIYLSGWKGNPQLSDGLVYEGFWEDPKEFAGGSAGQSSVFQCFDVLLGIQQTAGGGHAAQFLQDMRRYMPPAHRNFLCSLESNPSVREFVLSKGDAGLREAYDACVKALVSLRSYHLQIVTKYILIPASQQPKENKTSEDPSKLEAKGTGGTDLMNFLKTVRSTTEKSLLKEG
IDO1 in HeLa cells, sequence (P14902 whole entry): as above

## Nc1sc2ccc(Br)cc2c1Nc1ccc(F)c(Cl)c1 [Compound 123, 5-Bromo-N^3-(3-chloro-4-fluorophenyl)benzo[b]thiophene-2,3-diamine]
[1]
  IC50: < 200 nM
IDO1 in HeLa cells
  IC50: 200 to 1000 nM
[2]
  IC50: > 2000 nM

## Nc1sc2ccccc2c1Nc1ccc(Cl)c(C(F)(F)F)c1 [Compound 124, N^3-(4-Chloro-3-(trifluoromethyl)phenyl)benzo[b]thiophene-2,3-diamine]
[1]
  IC50: < 200 nM
IDO1 in HeLa cells
  IC50: < 200 nM
[2]
  IC50: > 2000 nM

## Nc1sc2ccccc2c1Nc1ccc(Br)c(C(F)(F)F)c1 [Compound 126, N^3-(4-Bromo-3-(trifluoromethyl)phenyl)benzo[b]thiophene-2,3-diamine]
[1]
  IC50: 200 to 1000 nM
IDO1 in HeLa cells
  IC50: 200 to 1000 nM
[2]
  IC50: > 2000 nM

## Nc1sc2ccc(Cl)cc2c1Nc1ccccc1 [Compound 130, 5-Chloro-N^3-phenylbenzo[b]thiophene-2,3-diamine]
[1]
  IC50: 200 to 1000 nM
IDO1 in HeLa cells
  IC50: 200 to 1000 nM
[2]
  IC50: > 2000 nM

## Nc1sc2ccc(Cl)cc2c1Nc1ccc(F)cc1 [Compound 131, 5-Chloro-N^3-(4-fluorophenyl)benzo[b]thiophene-2,3-diamine]
[1]
  IC50: 200 to 1000 nM
IDO1 in HeLa cells
  IC50: 200 to 1000 nM
[2]
  IC50: 500 to 2000 nM

## Nc1sc2ccc(Cl)cc2c1Nc1ccc(F)c(C(F)(F)F)c1 [Compound 132, 5-Chloro-N^3-(4-fluoro-3-(trifluoromethyl)phenyl)benzo[b]thiophene-2,3-diamine]
[1]
  IC50: 200 to 1000 nM
IDO1 in HeLa cells
  IC50: 200 to 1000 nM
[2]
  IC50: > 2000 nM

## Nc1sc2ccc(Cl)cc2c1Nc1cccc(C(F)(F)F)c1 [Compound 133, 5-Chloro-N^3-(3-(trifluoromethyl)phenyl)benzo[b]thiophene-2,3-diamine hydrochloride]
[1]
  IC50: 200 to 1000 nM
IDO1 in HeLa cells
  IC50: 200 to 1000 nM
[2]
  IC50: 500 to 2000 nM

## C#Cc1cccc(Nc2c(N)sc3ccccc23)c1 [Compound 137, N^3-(3-Ethynylphenyl)-1-benzothiophene-2,3-diamine]
[1]
  IC50: 200 to 1000 nM
IDO1 in HeLa cells
  IC50: < 200 nM
[2]
  IC50: > 2000 nM

## Cc1cccc(Nc2c(N)sc3ccccc23)c1C [Compound 138, N^3-(2,3-Dimethylphenyl)-1-benzothiophene-2,3-diamine]
[1]
  IC50: > 1000 nM
IDO1 in HeLa cells
  IC50: 200 to 1000 nM
[2]
  IC50: 500 to 2000 nM

## O=C(Nc1oc2cnccc2c1Nc1ccc(F)c(Cl)c1)OCc1ccccc1 [Compound 139, Benzyl (3-((3-chloro-4-fluorophenyl)amino)furo[2,3-c]pyridin-2-yl)carbamate]
[1]
  IC50: > 1000 nM
IDO1 in HeLa cells
  IC50: > 1000 nM
[2]
  IC50: 500 to 2000 nM

## Nc1oc2c(-c3ccc(F)cc3)nccc2c1Nc1ccc(F)c(Cl)c1 [Compound 147, N^3-(3-Chloro-4-fluorophenyl)-7-(4-fluorophenyl)furo[2,3-c]pyridine-2,3-diamine]
[1]
  IC50: < 200 nM
IDO1 in HeLa cells
  IC50: < 200 nM
[2]
  IC50: 500 to 2000 nM

## Cn1cc(-c2nccc3c(Nc4ccc(F)c(Cl)c4)c(N)oc23)cn1 [Compound 148, N^3-(3-Chloro-4-fluorophenyl)-7-(1-methyl-1H-pyrazol-4-yl)furo[2,3-c]pyridine-2,3-diamine]
[1]
  IC50: < 200 nM
IDO1 in HeLa cells
  IC50: < 200 nM
[2]
  IC50: 500 to 2000 nM

## N#Cc1ccc(-c2nccc3c(Nc4ccc(F)c(Cl)c4)c(N)oc23)cc1 [Compound 149, 4-(2-Amino-3-((3-chloro-4-fluorophenyl)amino)furo[2,3-c]pyridin-7-yl)benzonitrile]
[1]
  IC50: < 200 nM
IDO1 in HeLa cells
  IC50: < 200 nM
[2]
  IC50: 500 to 2000 nM

## NC(=O)c1ccc(-c2nccc3c(Nc4ccc(F)c(Cl)c4)c(N)oc23)cc1 [Compound 151, 4-(2-Amino-3-((3-chloro-4-fluorophenyl)amino)furo[2,3-c]pyridin-7-yl)benzamide]
[1]
  IC50: < 200 nM
IDO1 in HeLa cells
  IC50: < 200 nM
[2]
  IC50: 500 to 2000 nM

## COC(=O)c1ccc(-c2nccc3c(Nc4ccc(F)c(Cl)c4)c(N)oc23)cc1 [Compound 152, Methyl 4-(2-amino-3-((3-chloro-4-fluorophenyl)amino)furo[2,3-c]pyridin-7-yl)benzoate]
[1]
  IC50: < 200 nM
IDO1 in HeLa cells
  IC50: < 200 nM
[2]
  IC50: 500 to 2000 nM
